In ChEMBL document CHEMBL1201862, “PubChem BioAssay data set” (2004):
The source made the active and inactive calls.

Assays:
[1] = target: Paired box protein Pax-8 (Homo sapiens, UniProt Q06710); test: inhibitors of PAX8-driven TPO luciferase reporter, dose response, RMG-I cells, cherry-pick (AID 687027); format: functional, cell-based;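 further: luciferase reporter driven by Pax8 target thyroperoxidase promoter measured by SteadyGlo luminescence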
[2] = IOSE-T80 ovarian epithelial cell cytotoxicity, dose response, cytotoxicity control for PAX8 inhibitor project, plate reader, dry powder samples (AID 743045); format: functional, cell-based
[3] = A2780 ovarian cancer cell cytotoxicity, dose response, cytotoxicity control, plate reader, dry powder samples (AID 743046); format: functional, cell-based
[4] = NIH:OVCAR-3 ovarian cancer cell cytotoxicity, dose response, PAX8 inhibitor project, plate reader, dry powder samples (AID 743044); format: functional, cell-based
[5] = IGROV1 ovarian cancer cell cytotoxicity, dose response, PAX8 inhibitor project, plate reader, dry powder samples (AID 743043); format: functional, cell-based; conditions: IGROV-1
[6] = cytotoxicity in OVCAR8 ovarian cancer cells, dose response, PAX8 project, cell-based, plate reader, dry powder samples (AID 743197); format: functional; conditions: OVCAR-8
[7] = human group III sPLA2 inhibitors, dose response, biochemical, QFRET, IC50 (AID 743457);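 further: green fluorescence rise as the enzyme cleaves BODIPY PC-A2 in liposomes; potency for inhibition of the enzyme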
[8] = Late stage assay provider results from the probe development effort to identify selective inhibitors of heat shock protein 90 (HSP90): Absorbance-based cell proliferation assay in SKBR3 cells.; format: functional; conditions: SK-BR-3
[9] = Late stage assay provider results from the probe development effort to identify selective inhibitors of heat shock protein 90 (HSP90): Absorbance-based cell proliferation assay in MCF7 cells.; format: functional
[10] = target: Galanin receptor type 3 (Homo sapiens, UniProt O60755); test: Fluorescence-based cell-based primary high throughput dose response assay to identify antagonists of the Galanin Receptor 3 (GalR3).; format: functional
[11] = cells; format: functional, cell-based; conditions: HEK-CNG
[12] = inhibitors of Vif binding to APOBEC3G peptide, primary screen, biochemical, TR-FRET, GST-Vif 1-94, biotin-A3G peptide, dose response retest (AID 1117319); format: functional;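 further: TR-FRET signal of purified GST-Vif binding a biotinylated A3G peptide; inhibitors lower the FRET signal by blocking Vif and A3G binding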
[13] = THP-1 cell cytotoxicity, dose response, cytotoxicity control for non-replicating M. tuberculosis project (AID 489025); format: functional
[14] = cells; format: functional
[15] = cells; format: functional, cell-based
[16] = target: T1, Nuclear receptor subfamily 0 group B member 1 (Homo sapiens, UniProt P51843); format: functional, cell-based;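 further: HEK293T cells transfected with SF-1 and DAX-1 plus StAR promoter luciferase reporter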
T1 sequence (P51843 whole entry): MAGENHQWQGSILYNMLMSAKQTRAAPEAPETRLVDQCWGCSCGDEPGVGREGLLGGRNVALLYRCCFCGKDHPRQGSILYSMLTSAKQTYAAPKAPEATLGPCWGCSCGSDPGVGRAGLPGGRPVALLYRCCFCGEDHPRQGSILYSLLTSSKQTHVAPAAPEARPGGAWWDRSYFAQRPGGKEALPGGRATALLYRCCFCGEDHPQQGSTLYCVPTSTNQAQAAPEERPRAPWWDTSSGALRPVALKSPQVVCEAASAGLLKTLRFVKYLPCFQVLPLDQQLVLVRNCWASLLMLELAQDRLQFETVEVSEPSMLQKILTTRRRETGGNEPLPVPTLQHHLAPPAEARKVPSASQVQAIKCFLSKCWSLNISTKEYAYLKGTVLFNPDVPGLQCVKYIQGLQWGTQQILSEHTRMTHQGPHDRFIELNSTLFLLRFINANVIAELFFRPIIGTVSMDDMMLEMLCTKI
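Wherever EC50 is given: target is galanin receptor GalR3 read with a cAMP biosensor in HEK293 cells.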

Sequence of Galanin receptor type 3 (O60755 whole entry): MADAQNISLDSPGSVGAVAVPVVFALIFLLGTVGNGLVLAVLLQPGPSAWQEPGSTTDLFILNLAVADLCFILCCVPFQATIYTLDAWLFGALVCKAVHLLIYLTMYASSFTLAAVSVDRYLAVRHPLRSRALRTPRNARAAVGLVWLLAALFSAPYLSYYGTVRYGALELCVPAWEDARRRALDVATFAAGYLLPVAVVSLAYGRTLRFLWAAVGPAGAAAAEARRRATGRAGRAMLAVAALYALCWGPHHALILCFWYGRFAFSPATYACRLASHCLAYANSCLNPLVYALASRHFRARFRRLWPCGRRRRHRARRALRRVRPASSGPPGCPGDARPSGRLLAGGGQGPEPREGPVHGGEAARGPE
Sequence of Paired box protein Pax-8 (Q06710 whole entry): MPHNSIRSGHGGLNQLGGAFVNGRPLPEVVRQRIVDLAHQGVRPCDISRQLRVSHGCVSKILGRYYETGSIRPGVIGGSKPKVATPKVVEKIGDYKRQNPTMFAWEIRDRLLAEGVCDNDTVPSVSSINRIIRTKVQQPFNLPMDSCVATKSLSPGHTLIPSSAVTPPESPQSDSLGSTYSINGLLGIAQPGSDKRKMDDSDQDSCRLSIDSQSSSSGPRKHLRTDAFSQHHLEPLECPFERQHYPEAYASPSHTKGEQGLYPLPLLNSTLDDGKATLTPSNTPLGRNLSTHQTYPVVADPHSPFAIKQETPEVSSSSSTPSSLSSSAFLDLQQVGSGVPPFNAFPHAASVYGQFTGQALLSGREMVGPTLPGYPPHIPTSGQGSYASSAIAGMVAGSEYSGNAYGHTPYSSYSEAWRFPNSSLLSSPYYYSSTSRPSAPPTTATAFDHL

Question: What does the source list for `Cc1ccc(S(=O)(=O)N(C)C[C@@H]2Oc3ccc(NC(=O)Nc4ccc(C(F)(F)F)cc4)cc3CC(=O)N([C@@H](C)CO)C[C@@H]2C)cc1`?
Answer: AC50 [1]: 0.799 µM (active); AC50 [2]: 0.483 µM (active); AC50 [3]: 3.88 µM (active); AC50 [4]: 0.584 µM (active); AC50 [5]: 1.16 µM (active); AC50 [6]: 5.91 µM (active)

Question: For `Cc1cccc(NN=C(S)Nc2c(C)cccc2C)c1`, which IC50 [7] is on record?
Answer: The IC50 was > 122 µM (inactive).

Question: What does the source list for `COc1ccc2cc(Br)c(=O)oc2c1`?
Answer: IC50 [8]: > 100 µM (inactive); IC50 [9]: > 100 µM (inactive)

Question: Which IC50 [8] does the source give for `CCOc1cn(C)c(C(=O)Nc2ccccc2)cc1=O` here?
Answer: The IC50 was > 100 µM (inactive).

Question: What about the IC50 [9] of the same compound?
Answer: Its IC50 is > 100 µM (inactive).

Question: Which results are given for `N#Cc1cc(-c2ccccc2)oc1NC(=O)c1ccco1`?
Answer: IC50 [10]: 8.23 µM (active); EC50 [11]: > 29.9 µM (inactive)

Question: For `CCOc1ccc(N/C([S-])=C(/C(=O)c2ccc(C)c([N+](=O)[O-])c2)[n+]2ccccc2)cc1`, which IC50 [12] is on record?
Answer: The IC50 was > 100 µM (active).

Question: With `CC(C)(C)NC(=O)COC(=O)c1snc(C(=O)NC2CCCCC2)c1N` as the compound, how does the CC50 [13] read?
Answer: The CC50 was > 40 µM (active).

Question: What about the IC50 [14] of the same compound?
Answer: Its IC50 is 4.33 µM (active).

Question: What about the IC50 [10] of the same compound?
Answer: Its IC50 is 1.95 µM (active).

Question: And the EC50 [11]?
Answer: Its EC50 is > 29.9 µM (inactive).

Question: Which results are given for `COc1ccc(C=C2CCc3ccccc3C2=O)cc1`?
Answer: IC50 [15]: > 67.6 µM (inactive); IC50 [16]: > 67.6 µM (inactive)
